Legend:
tubulin [1] = system: T1, tubulin; assay: turbidimetric tubulin polymerization assay (absorbance at […] nm); format: biochemical, Bos taurus
T1 construct: tubulin isolated from bovine brain (α/β heterodimer); with α-tubulin/β-tubulin heterodimer

tubulin [2] = system: T1, tubulin; assay: turbidimetric tubulin polymerization assay (absorbance at […] nm), positive control; format: biochemical, Bos taurus

SMILES	IC50 (tubulin [1])	IC50 (tubulin [2])
CC(C)[C@@](O)(C(=O)OC[C@@H]1CC[N+]2([O-])CCC[C@H]12)[C@@H](C)O (stereo partly drawn) [compound 7, (2S,3R)-((1R,7aR)-hexahydro-1H-pyrrolizin-1-yl)methyl2,3-dihydroxy-2-isopropylbutanoate-N-oxide]	91 µM	–
CC(=O)O[C@H]1C(=O)[C@@]2(C)[C@H]([C@H](OC(=O)c3ccccc3)[C@]3(O)C[C@H](OC(=O)[C@H](O)[C@@H](NC(=O)c4ccccc4)c4ccccc4)C(C)=C1C3(C)C)[C@]1(OC(C)=O)CO[C@@H]1C[C@@H]2O [paclitaxel]	–	2.4 µM

Source: paper PMC6269846, “Pyrrolizidine Alkaloids and Fatty Acids from the Endemic Plant Species Rindera umbellata and the Effect of Lindelofine-N-oxide on Tubulin Polymerization” (Molecules, 2013)
